Values after ≈ are worked out from the molar mass of the structure shown. Where two headings read alike, the source gives them in different places.
Assays:
[1] = tested on: Induced pluripotent stem cell-derived cardiac fibroblasts (ACTA2-GFP); experiment: Antifibrotic effects in TGF-β-activated iPSC-derived cardiac fibroblasts (ACTA2-GFP fluorescence); assay type: cell-based; conditions: for reduction in fluorescence (fibrotic marker ACTA2-GFP) / IC50: activated with TGF-β, 48 hours; for reduction in fluorescence (fibrotic marker ACTA2-GFP): various concentrations; for IC50: simultaneous treatment, ACTA2-GFP fluorescence, read-out: IC50, reduction in fluorescence; for antifibrotic efficacy in this model: TGF-β-activated iPSC-derived cardiac fibroblasts
Source text: Induced pluripotent stem cell-derived cardiac fibroblasts were constructed containing a fusion of the alpha-smooth muscle actin to the green fluorescent protein (ACTA2-GFP) construct. ACTA2 is a myofibroblast marker, such that the fibroblasts fluoresce with an intensity dependent on the extent of fibrosis.

in vitro = in vitro ADME; conditions: for fraction unbound: plasma
Description: Plasma protein binding assays were conducted in triplicate for compounds PT-2, PT-14, PT-28, and PT-30, with artesunate, DHA, and warfarin as comparators.

[2] = Intravenous and oral pharmacokinetics in mice; assay type: in vivo; conditions: male C57BL/6J mice
Description: The intravenous (IV) and oral (PO) pharmacokinetics of the PT compounds were measured in 6-10 week-old male C57BL/6J mice, using three mice/group. The test compounds were formulated in an appropriate water-based vehicle to give a clear solution for IV administration, or a clear solution or uniform suspension for PO administration. Animals were dosed within 4 hours of the preparation of the formulations; with the dose volume being determined by the animal's body weight measured on the morning of the dosing day. Blood samples (about 25 μL per time point) were taken at 5 and 15 minutes and 1, 3, and 5 hours after dosing, into pre-chilled EDTA-K2 tubes and kept on wet ice until centrifugation. The tubes were centrifuged at 3200×g at about 4° C. for 10 minutes, and the plasma analyzed by LC-MS/MS.

[3] = tested on: MD2 signaling pathway (HEK Blue-TLR4 cells); experiment: HEK Blue-TLR4 assay (MD2 pathway); assay type: cell-based; conditions: 1 h preincubation, 10 ng/mL lipopolysaccharide, read after 20 hours at 655 nm
Description: HEK Blue-TLR4 cells were plated in detection media, preincubated with vehicle or PT-2, PT-14, or PT-30 dissolved in vehicle (with artesunate, DHA, and artemisinin comparators) for 1 h, then co-stimulated with 10 ng/mL lipopolysaccharide. Reporter activity was read after 20 hours at 655 nm in a spectrophotometer. The PT compounds were active in this assay, showing that they inhibit the MD2 signaling pathway.

[4] = Solid-state stability of PT-30; assay type: physicochemical
Description: (§1) PT-30, DHA 5-oxo-2,6-diazaspiro[3.4]octane-2-carboxylate, (3R,5aS,6R,8aS,9R,12S,12aR)-decahydro-3,6,9-trimethyl-3,12-epoxy-12H-pyrano[4,3-j]-1,2-benzodioxepin-10-yl 5-oxo-2,6-diazaspiro[3.4]octane-2-carboxylate, was a white crystalline solid as prepared. […] PT-30 had low solubility (<0.1 mg/mL) in aqueous acidic conditions and in simulated gastric fluid, and a solubility of about 0.7 mg/mL in fasted-state and fed-state simulated intestinal fluids.

[5] = tested on: primary pulmonary fibroblasts; experiment: Antifibrotic efficacy in primary pulmonary fibroblasts; assay type: cell-based
Solubility of PT-30 = assay type: physicochemical
Description: as §1

Hygroscopicity of PT-30 = assay type: physicochemical; conditions: from 40% to 95% RH
Description: as §1

[6] = tested on: CCl4 injury mouse liver model; experiment: CCl4 injury mouse liver model; assay type: in vivo; conditions: oral administration
[7] = tested on: bleomycin injury mouse skin model; experiment: Bleomycin injury mouse skin model; assay type: in vivo; conditions: topical administration (50 μL, 100 μM in 0.1% DMSO/PBS)
[8] = tested on: bleomycin-induced pulmonary fibrosis model; conditions: bleomycin-induced pulmonary fibrosis model in rats; cited from earlier work

## C[C@H]1[C@@H](O)OC2O[C@@]3(C)CC[C@H]4[C@H](C)CC[C@@H]1[C@@]24OO3 (stereo in doubt) [DHA, (3R,5aS,6R,8aS,9R,12S,12aR)-decahydro-3,6,9-trimethyl-3,12-epoxy-12H-pyrano[4,3-j]-1,2-benzodioxepin-10-ol]
[1]
  reduction in fluorescence (fibrotic marker ACTA2-GFP): dose-dependent reduction in fluorescence
In vitro; human
  recovery: 102%
  fraction unbound: 0.108
In vitro; mouse
  recovery: 105%
  fraction unbound: 0.1

## CC(CO)C(=O)OC1OC2OC3(C)CCC4C(C)CCC(C1C)C24OO3 (stereo not shown) [PT-1, DHA 3-hydroxy-2-methylpropionate]
[2]; IV, plasma
  IV AUC0-last: 100 ng·h/mL
  IV Clearance: 1280 mL/min/kg
  IV T1/2: 7.8 min
  IV VD,ss: 9.0 L/kg
[2]; PO
  PO Bioavailability: 1.3%
[2]; PO, plasma
  PO AUC0-last: 20 ng·h/mL
  PO T1/2: 22.2 min
[1]
  IC50: 2.3 µM

## C[C@H]1[C@@H](OC(=O)C(C)(C)CO)O[C@@H]2O[C@@]3(C)CC[C@H]4[C@H](C)CC[C@@H]1[C@@]24OO3 [PT-2, DHA 3-hydroxy-2,2-dimethylpropanoate]
[2]; IV, plasma
  IV AUC0-last: 1200 ng·h/mL
  IV Clearance: 140 mL/min/kg
  IV T1/2: 6 min
  IV VD,ss: 1.3 L/kg
[2]; PO
  PO Bioavailability: 27%
[2]; PO, plasma
  PO AUC0-last: 3200 ng·h/mL
[3]
  activity in HEK Blue-TLR4 reporter assay (inhibition of MD2 signaling pathway): active
[1]
  IC50: 0.88 µM

## CC1CCC2C(C)C(OC(=O)CC(C)(C)O)OC3OC4(C)CCC1C32OO4 (stereo not shown) [PT-4, DHA 3-hydroxy-3-methylbutanoate]
[2]; IV, plasma
  IV AUC0-last: 600 ng·h/mL
  IV Clearance: 280 mL/min/kg
  IV T1/2: 6.6 min
  IV VD,ss: 2.0 L/kg
[2]; PO
  PO Bioavailability: 11%
[2]; PO, plasma
  PO AUC0-last: 500 ng·h/mL
  PO T1/2: 10.8 min
[1]
  IC50: 5.6 µM

## CC1CCC2C(C)C(OC(=O)N3CC(O)C3)OC3OC4(C)CCC1C32OO4 (stereo not shown) [PT-13, DHA 3-hydroxyazetidine-1-carboxylate]
[2]; IV, plasma
  IV AUC0-last: 2200 ng·h/mL
  IV Clearance: 76 mL/min/kg
  IV T1/2: 7.2 min
  IV VD,ss: 0.9 L/kg
[2]; PO
  PO Bioavailability: 64%
[2]; PO, plasma
  PO AUC0-last: 14100 ng·h/mL
  PO T1/2: 41.4 min
[1]
  IC50: 2.6 µM

## CC1CCC2C(C)C(OC(=O)N3CC(C)(O)C3)OC3OC4(C)CCC1C32OO4 (stereo not shown) [PT-14, DHA 3-hydroxy-3-methylazetidine-1-carboxylate]
[2]; IV, plasma
  IV AUC0-last: 2200 ng·h/mL
  IV Clearance: 75 mL/min/kg
  IV T1/2: 10.8 min
  IV VD,ss: 1.1 L/kg
[2]; PO
  PO Bioavailability: 92%
[2]; PO, plasma
  PO AUC0-last: 20500 ng·h/mL
  PO T1/2: 39.6 min
[3]
  activity in HEK Blue-TLR4 reporter assay (inhibition of MD2 signaling pathway): active
[1]
  IC50: 0.57 µM

## CC1CCC2C(C)C(OC(=O)N(C)CCO)OC3OC4(C)CCC1C32OO4 (stereo not shown) [PT-20, DHA (2-hydroxyethyl)(methyl)carbamate]
[2]; IV, plasma
  IV AUC0-last: 2400 ng·h/mL
  IV Clearance: 69 mL/min/kg
  IV T1/2: 14.4 min
  IV VD,ss: 0.8 L/kg
[2]; PO
  PO Bioavailability: 73%
[2]; PO, plasma
  PO AUC0-last: 17700 ng·h/mL
  PO T1/2: 31.8 min

## CC1CCC2C(C)C(OC(=O)N3CC(C)(N)C3)OC3OC4(C)CCC1C32OO4 (stereo not shown) [PT-24, DHA 3-amino-3-methylazetidine-1-carboxylate]
[2]; IV, plasma
  IV AUC0-last: 2200 ng·h/mL
  IV Clearance: 77 mL/min/kg
  IV T1/2: 15.6 min
  IV VD,ss: 2.2 L/kg
[2]; PO
  PO Bioavailability: 123%
[2]; PO, plasma
  PO AUC0-last: 24300 ng·h/mL
  PO T1/2: 67.2 min

## CC1CCC2C(C)C(OC(=O)N3CC(C)(C(=O)O)C3)OC3OC4(C)CCC1C32OO4 (stereo not shown) [PT-25, DHA 3-carboxy-3-methylazetidine-1-carboxylate]
[2]; IV, plasma
  IV AUC0-last: 2200 ng·h/mL
  IV Clearance: 74 mL/min/kg
  IV T1/2: 16.2 min
  IV VD,ss: 1.3 L/kg
[2]; PO
  PO Bioavailability: 17%
[2]; PO, plasma
  PO AUC0-last: 3700 ng·h/mL
  PO T1/2: 113 min

## CC1CCC2C(C)C(OC(=O)N3CC(C)(C(N)=O)C3)OC3OC4(C)CCC1C32OO4 (stereo not shown) [PT-27, DHA 3-methyl-3-carbamoylazetidine-1-carboxylate]
[2]; IV, plasma
  IV AUC0-last: 3300 ng·h/mL
  IV Clearance: 47 mL/min/kg
  IV T1/2: 15 min
  IV VD,ss: 1.0 L/kg
[2]; PO
  PO Bioavailability: 41%
[2]; PO, plasma
  PO AUC0-last: 14400 ng·h/mL
  PO T1/2: 78 min

## CNC(=O)C1(C)CN(C(=O)O[C@H]2O[C@@H]3O[C@@]4(C)CC[C@H]5[C@H](C)CC[C@@H]([C@H]2C)[C@@]35OO4)C1 [PT-28, DHA 3-methyl-3-(methylcarbamoyl)azetidine-1-carboxylate]
[2]; IV, plasma
  IV AUC0-last: 4200 ng·h/mL
  IV Clearance: 38 mL/min/kg
  IV T1/2: 14.4 min
  IV VD,ss: 0.8 L/kg
[2]; PO
  PO Bioavailability: 112%
[2]; PO, plasma
  PO AUC0-last: 48800 ng·h/mL
  PO T1/2: 28.8 min
[1]
  antifibrotic efficacy in this model: demonstrated antifibrotic efficacy

## CC1CCC2C(C)C(OC(=O)N3CC(C)(C(=O)N(C)C)C3)OC3OC4(C)CCC1C32OO4 (stereo not shown) [PT-29, DHA 3-methyl-3-(dimethylcarbamoyl)azetidine-1-carboxylate]
[2]; IV, plasma
  IV AUC0-last: 2000 ng·h/mL
  IV Clearance: 82 mL/min/kg
  IV T1/2: 7.8 min
  IV VD,ss: 0.9 L/kg
[2]; PO
  PO Bioavailability: 34%
[2]; PO, plasma
  PO AUC0-last: 6800 ng·h/mL
  PO T1/2: 64.8 min

## C[C@@H]1CC[C@H]2[C@@H](C)C(OC(=O)N3CC4(CCNC4=O)C3)O[C@H]3O[C@@]4(C)CC[C@@H]1[C@]32OO4 (stereo partly drawn) [PT-30, (3R,5aS,6R,8aS,9R,12S,12aR)-decahydro-3,6,9-trimethyl-3,12-epoxy-12H-pyrano[4,3-j]-1,2-benzodioxepin-10-yl 5-oxo-2,6-diazaspiro[3.4]octane-2-carboxylate]
[4]; 25° C./60% RH for 1 week
  chemical and crystal form stability: chemically stable without crystal form change
[4]; 40° C./75% RH for 1 week
  chemical and crystal form stability: chemically stable without crystal form change
[5]
  antifibrotic efficacy, effect on acta2, colla1, and CTGF: demonstrated antifibrotic efficacy
Solubility of PT-30; aqueous acidic conditions, aqueous buffer
  solubility: < 100 µg/mL
Solubility of PT-30; common organic solvents, greatest in methanol and tetrahydrofuran
  solubility in organic solvents: soluble in common organic solvents
Solubility of PT-30; fasted-state simulated intestinal fluid, fassif
  solubility: ~700 µg/mL (≈ 1600 µM)
Solubility of PT-30; fed-state simulated intestinal fluid, fessif
  solubility: ~700 µg/mL (≈ 1600 µM)
Solubility of PT-30; simulated gastric fluid
  solubility: < 100 µg/mL
[2]; mouse, plasma, PO
  bioavailability: 73%
[2]; mouse, IV, plasma
  clearance: 30 mL/min/kg
[2]; mouse, IV, plasma, read-out: IV AUC0-last
  AUC(0-t): 5300 ng·h/mL
[2]; mouse, IV, plasma, read-out: IV T1/2 (converted)
  half-life: 13.2 min
[2]; mouse, IV, plasma, read-out: IV VD,ss
  Vd: 0.6 L/kg
[2]; mouse, PO, plasma, read-out: PO AUC0-last
  AUC(0-t): 40900 ng·h/mL
[2]; mouse, PO, plasma, read-out: PO T1/2 (converted)
  half-life: 20.4 min
Hygroscopicity of PT-30
  hygroscopicity, water uptake: 0.5%
[3]
  activity in HEK Blue-TLR4 reporter assay (inhibition of MD2 signaling pathway): active
[1]
  antifibrotic efficacy in this model: demonstrated antifibrotic efficacy
In vitro; human
  recovery: 84.9%
  fraction unbound: 0.455
In vitro; mouse
  recovery: 87.6%
  fraction unbound: 0.079
[6]
  antifibrotic efficacy: demonstrated antifibrotic efficacy
[7]
  antifibrotic efficacy: demonstrated antifibrotic efficacy

## C[C@H]1[C@H](OC(=O)CCC(=O)O)O[C@@H]2O[C@@]3(C)CC[C@H]4[C@H](C)CC[C@@H]1[C@@]24OO3 [artesunate]
[1]; Cardiac fibroblast
  IC50: 2.8 µM
[1]
  reduction in fluorescence (fibrotic marker ACTA2-GFP): dose-dependent reduction in fluorescence
In vitro; human
  recovery: 98%
  fraction unbound: 0.233
In vitro; mouse
  recovery: 53.4%
  fraction unbound: 0.278
[8]
  antifibrotic activity: active as an antifibrotic agent

## CC(=O)CC(c1ccccc1)c1c(O)c2ccccc2oc1=O (stereo not shown) [warfarin]
In vitro; human
  recovery: 91.1%
  fraction unbound: 0.003
In vitro; mouse
  recovery: 94.5%
  fraction unbound: 0.007

— patent US20250051350A1, “Dihydroartemisinin derivatives and the treatment of fibrotic diseases” (GreenStone Biosciences, Inc., priority 2023, published 2025)
